Experiments:
[1] = system: Female Crl:CD (SD) BR Rats; test: Developmental toxicity study in rats: reproductive performance and fetal development; assay type: in vivo, rat; conditions: for Females pregnant (%) / Fertility index / Litters with resorptions (%) / Number of dead fetuses / Number of females bearing viable fetuses / Number of females pregnant / Number of litters with resorptions / Total number of viable fetuses / Body weight (g) of viable fetuses / Body weight (g) of viable fetuses: Female fetuses / Body weight (g) of viable fetuses: Male fetuses / Number of corpora lutea / Number of female fetuses / Number of implantation sites / Number of males fetuses / Number of resorptions / Postimplantation loss = (resorptions/implantations) / Preimplantation loss = (corpora lutea-implants)/(corpora lutea): Days 6 to 15 of gestation; for Total number of viable fetuses: Day 20; for Body weight (g) of viable fetuses / Body weight (g) of viable fetuses: Female fetuses / Body weight (g) of viable fetuses: Male fetuses / Number of corpora lutea / Number of female fetuses / Number of implantation sites / Number of males fetuses / Number of resorptions / Postimplantation loss = (resorptions/implantations) / Preimplantation loss = (corpora lutea-implants)/(corpora lutea): mean ±SD
From the text: (§1) Safety tests performed on tagatose in its development as a low-calorie sweetener included developmental toxicity studies in rats. Rats are accepted by the US FDA as good models for humans in studying safety and efficacy of food additives and drugs. Newly impregnated rats were placed on various doses of tagatose in their daily diet. Female rats were housed with males nightly in a one-to-one ratio, and each morning inspections for vaginal plugs were made, and in their absence, vaginal smears were taken and tested for sperm. Those females which had been mated were selected for monitoring of fetal development and assigned to tagatose dose groups in a manner so as to provide an equal distribution of mated females among groups and also to equalize the Day 0 gestation mean body weights among the groups. There were 24 mated females in each group. On Days 6-15 of gestation three of the groups received respective total doses of 4,000, 12,000 and 20,000 mg/kg body wt/day administered via gastric intubation in two equally divided doses separated by a four-hour interval. Each dose was administered in 30 ml/kg body weight of distilled, deionized water. […] For a period of 20 days following mating, the rats were observed and measurements taken daily. Upon the 20th day, the rats were killed and a wide variety of physical, toxicological, and fetal developmental parameters was determined for treatment effects. […] However, I noted unpredictable, novel and beneficial effects with respect to fertility and fetal development.

Female Crl:CD(SD)BR Rats = test: Food consumption in pregnant rats fed D-tagatose; assay type: in vivo, rat; conditions: for Food intake (g/animal) / Food intake (g/kg body wt/day): mean ±SD
From the text: as §1
One of the common problems associated with pregnancy is overeating which can result in excess weight gain with its concomitant health risks to the mother and fetus. […] This represents a clear health advantage for both dam and fetus receiving tagatose.

human = test: Examples 1-4: human taking tagatose before and during pregnancy; assay type: in vivo
From the text: A 70 kg human with a history of difficulty in conceiving begins taking tagatose twice daily at five g per dose, beginning one month before an attempt to conceive. […] A 70 kg human with a history of spontaneous abortions and stillbirths takes tagatose twice daily at five g per dose, beginning one month before an attempt to conceive. […] A 70 kg human takes precautions against giving birth to a below average weight infant by taking tagatose twice daily at five g per dose, beginning one month before an attempt to conceive. […] A 70 kg human inclined toward obesity desires a child, but is concerned that pregnancy may increase their food intake causing weight problems as experienced in their past pregnancies. They take tagatose twice daily at five g per dose, beginning one month before an attempt to conceive. […] They deliver a healthy, normal child.

[2] = 4,000 mg/kg/day, Days 0-6 of pregnancy (pretreatment)
[3] = 4,000 mg/kg/day, Days 6-9 of pregnancy
[4] = 4,000 mg/kg/day, Days 9-12 of pregnancy
[5] = 4,000 mg/kg/day, Days 12-16 of pregnancy
[6] = 4,000 mg/kg/day, Days 16-20 of pregnancy (posttreatment)
[7] = 12,000 mg/kg/day, Days 0-6 of pregnancy (pretreatment)
[8] = 12,000 mg/kg/day, Days 6-9 of pregnancy
[9] = 12,000 mg/kg/day, Days 9-12 of pregnancy
[10] = 12,000 mg/kg/day, Days 12-16 of pregnancy
[11] = 12,000 mg/kg/day, Days 16-20 of pregnancy (posttreatment)
[12] = 20,000 mg/kg/day, Days 0-6 of pregnancy (pretreatment)
[13] = 20,000 mg/kg/day, Days 6-9 of pregnancy
[14] = 20,000 mg/kg/day, Days 9-12 of pregnancy
[15] = 20,000 mg/kg/day, Days 12-16 of pregnancy
[16] = 20,000 mg/kg/day, Days 16-20 of pregnancy (posttreatment)

O=C(CO)[C@@H](O)[C@@H](O)[C@H](O)CO [D-tagatose]
Females pregnant (%) ([1]; 4,000 mg/kg/day): 100%
Fertility index ([1]; 4,000 mg/kg/day): 100
Litters with resorptions (%) ([1]; 4,000 mg/kg/day): 78.3%
Number of dead fetuses ([1]; 4,000 mg/kg/day): 0
Number of females bearing viable fetuses ([1]; 4,000 mg/kg/day): 23
Number of females pregnant ([1]; 4,000 mg/kg/day): 23
Number of litters with resorptions ([1]; 4,000 mg/kg/day): 18
Total number of viable fetuses ([1]; 4,000 mg/kg/day): 354
Body weight (g) of viable fetuses ([1]; 4,000 mg/kg/day): 3.56 ± 0.21 g
Body weight (g) of viable fetuses: Female fetuses ([1]; 4,000 mg/kg/day): 3.49 ± 0.20 g
Body weight (g) of viable fetuses: Male fetuses ([1]; 4,000 mg/kg/day): 3.64 ± 0.22 g
Number of corpora lutea ([1]; 4,000 mg/kg/day): 17.7 ± 2.8
Number of female fetuses ([1]; 4,000 mg/kg/day): 8.0 ± 2.2
Number of implantation sites ([1]; 4,000 mg/kg/day): 16.5 ± 2.3
Number of males fetuses ([1]; 4,000 mg/kg/day): 7.4 ± 2.3
Number of resorptions ([1]; 4,000 mg/kg/day): 1.1 ± 0.9
Postimplantation loss = (resorptions/implantations) ([1]; 4,000 mg/kg/day): 0.068 ± 0.051
Preimplantation loss = (corpora lutea-implants)/(corpora lutea) ([1]; 4,000 mg/kg/day): 0.053 ± 0.113
Females pregnant (%) ([1]; 12,000 mg/kg/day): 91.3%
Fertility index ([1]; 12,000 mg/kg/day): 91.3
Litters with resorptions (%) ([1]; 12,000 mg/kg/day): 28.6%
Number of dead fetuses ([1]; 12,000 mg/kg/day): 0
Number of females bearing viable fetuses ([1]; 12,000 mg/kg/day): 21
Number of females pregnant ([1]; 12,000 mg/kg/day): 21
Number of litters with resorptions ([1]; 12,000 mg/kg/day): 6
Total number of viable fetuses ([1]; 12,000 mg/kg/day): 322
Body weight (g) of viable fetuses ([1]; 12,000 mg/kg/day): 3.75 ± 0.32 g
Body weight (g) of viable fetuses: Female fetuses ([1]; 12,000 mg/kg/day): 3.65 ± 0.35 g
Body weight (g) of viable fetuses: Male fetuses ([1]; 12,000 mg/kg/day): 3.84 ± 0.33 g
Number of corpora lutea ([1]; 12,000 mg/kg/day): 17.7 ± 2.9
Number of female fetuses ([1]; 12,000 mg/kg/day): 7.5 ± 2.2
Number of implantation sites ([1]; 12,000 mg/kg/day): 15.9 ± 2.9
Number of males fetuses ([1]; 12,000 mg/kg/day): 7.8 ± 2.3
Number of resorptions ([1]; 12,000 mg/kg/day): 0.5 ± 0.9
Postimplantation loss = (resorptions/implantations) ([1]; 12,000 mg/kg/day): 0.043 ± 0.087
Preimplantation loss = (corpora lutea-implants)/(corpora lutea) ([1]; 12,000 mg/kg/day): 0.094 ± 0.151
Females pregnant (%) ([1]; 20,000 mg/kg/day): 100%
Fertility index ([1]; 20,000 mg/kg/day): 100
Litters with resorptions (%) ([1]; 20,000 mg/kg/day): 54.2%
Number of dead fetuses ([1]; 20,000 mg/kg/day): 0
Number of females bearing viable fetuses ([1]; 20,000 mg/kg/day): 24
Number of females pregnant ([1]; 20,000 mg/kg/day): 24
Number of litters with resorptions ([1]; 20,000 mg/kg/day): 13
Total number of viable fetuses ([1]; 20,000 mg/kg/day): 350
Body weight (g) of viable fetuses ([1]; 20,000 mg/kg/day): 3.57 ± 0.24 g
Body weight (g) of viable fetuses: Female fetuses ([1]; 20,000 mg/kg/day): 3.49 ± 0.19 g
Body weight (g) of viable fetuses: Male fetuses ([1]; 20,000 mg/kg/day): 3.68 ± 0.27 g
Number of corpora lutea ([1]; 20,000 mg/kg/day): 17.4 ± 2.8
Number of female fetuses ([1]; 20,000 mg/kg/day): 7.1 ± 2.3
Number of implantation sites ([1]; 20,000 mg/kg/day): 15.3 ± 2.9
Number of males fetuses ([1]; 20,000 mg/kg/day): 7.5 ± 2.3
Number of resorptions ([1]; 20,000 mg/kg/day): 0.8 ± 0.8
Postimplantation loss = (resorptions/implantations) ([1]; 20,000 mg/kg/day): 0.047 ± 0.049
Preimplantation loss = (corpora lutea-implants)/(corpora lutea) ([1]; 20,000 mg/kg/day): 0.107 ± 0.162
Adverse effects in the dams or fetuses ([1]; 4,000, 12,000 and 20,000 mg/kg body wt/day via gastric intubation, Days 6-15 of gestation, killed Day 20): No adverse effects in the dams or fetuses were found
Fetal weight versus control rats ([1]; each tagatose group, total, males and females): weighed more than the fetuses of the control rats
Fetal weight relative to normal weight range for age ([1]; fetuses from rats on tagatose, normal range 3.35-3.86 g males, 3.19-3.63 g females): within the normal weight range for their ages
Food intake (g/animal) (Female Crl:CD(SD)BR Rats; [2]): 144 ± 11 g/animal
Food intake (g/kg body wt/day) (Female Crl:CD(SD)BR Rats; [2]): 103 ± 7 g/kg body wt/day
Food intake (g/animal) (Female Crl:CD(SD)BR Rats; [3]): 70 ± 5 g/animal
Food intake (g/kg body wt/day) (Female Crl:CD(SD)BR Rats; [3]): 84 ± 4 g/kg body wt/day
Food intake (g/animal) (Female Crl:CD(SD)BR Rats; [4]): 78 ± 7 g/animal
Food intake (g/kg body wt/day) (Female Crl:CD(SD)BR Rats; [4]): 91 ± 5 g/kg body wt/day
Food intake (g/animal) (Female Crl:CD(SD)BR Rats; [5]): 112 ± 9 g/animal
Food intake (g/kg body wt/day) (Female Crl:CD(SD)BR Rats; [5]): 90 ± 5 g/kg body wt/day
Food intake (g/animal) (Female Crl:CD(SD)BR Rats; [6]): 129 ± 10 g/animal
Food intake (g/kg body wt/day) (Female Crl:CD(SD)BR Rats; [6]): 94 ± 3 g/kg body wt/day
Food intake (g/animal) (Female Crl:CD(SD)BR Rats; [7]): 148 ± 8 g/animal
Food intake (g/kg body wt/day) (Female Crl:CD(SD)BR Rats; [7]): 104 ± 8 g/kg body wt/day
Food intake (g/animal) (Female Crl:CD(SD)BR Rats; [8]): 58 ± 6 g/animal
Food intake (g/kg body wt/day) (Female Crl:CD(SD)BR Rats; [8]): 69 ± 7 g/kg body wt/day
Food intake (g/animal) (Female Crl:CD(SD)BR Rats; [9]): 73 ± 6 g/animal
Food intake (g/kg body wt/day) (Female Crl:CD(SD)BR Rats; [9]): 84 ± 5 g/kg body wt/day
Food intake (g/animal) (Female Crl:CD(SD)BR Rats; [10]): 105 ± 9 g/animal
Food intake (g/kg body wt/day) (Female Crl:CD(SD)BR Rats; [10]): 83 ± 5 g/kg body wt/day
Food intake (g/animal) (Female Crl:CD(SD)BR Rats; [11]): 137 ± 9 g/animal
Food intake (g/kg body wt/day) (Female Crl:CD(SD)BR Rats; [11]): 99 ± 5 g/kg body wt/day
Food intake (g/animal) (Female Crl:CD(SD)BR Rats; [12]): 149 ± 14 g/animal
Food intake (g/kg body wt/day) (Female Crl:CD(SD)BR Rats; [12]): 107 ± 9 g/kg body wt/day
Food intake (g/animal) (Female Crl:CD(SD)BR Rats; [13]): 43 ± 12 g/animal
Food intake (g/kg body wt/day) (Female Crl:CD(SD)BR Rats; [13]): 51 ± 14 g/kg body wt/day
Food intake (g/animal) (Female Crl:CD(SD)BR Rats; [14]): 67 ± 7 g/animal
Food intake (g/kg body wt/day) (Female Crl:CD(SD)BR Rats; [14]): 80 ± 7 g/kg body wt/day
Food intake (g/animal) (Female Crl:CD(SD)BR Rats; [15]): 94 ± 10 g/animal
Food intake (g/kg body wt/day) (Female Crl:CD(SD)BR Rats; [15]): 77 ± 6 g/kg body wt/day
Food intake (g/animal) (Female Crl:CD(SD)BR Rats; [16]): 138 ± 11 g/animal
Food intake (g/kg body wt/day) (Female Crl:CD(SD)BR Rats; [16]): 102 ± 6 g/kg body wt/day
Weight loss in the dams (Female Crl:CD(SD)BR Rats; except Day 6 to Day 9, attributed to laxation in the high dose groups): no consistent weight loss in the dams
Total daily food intake versus control group (Female Crl:CD(SD)BR Rats; period on tagatose, Day 6 through Day 15): less than the daily food intakes of rats in the control group
Birth weight (human; 70 kg human female, family history of low birth weight babies, five g twice daily): delivers a baby within the normal birth weight range
Food intake during pregnancy (human; 70 kg human inclined toward obesity, five g twice daily): their average daily diet does not increase
Conception (increased fertility) (human; 70 kg human, history of difficulty conceiving, five g twice daily from one month before attempt): their attempt is successful and they are pregnant
Live birth (human; 70 kg human, history of spontaneous abortions and stillbirths, five g twice daily): delivering a live birth

— patent publication US20030087834A1, “Increased fertility and improved fetal development drug” (priority 1999, published 2003)
